Measured values from US20260191793A1, “HBV SPECIFIC EXOSOMES AND USES THEREOF” (priority 2022, published 2026).

How the values were obtained:
[1] = tested on: HBV replication in HepG2/2.2.15 cells; test: Antiviral efficiency of synthetic gRNA/Cas9 RNPs in HepG2/2.2.15 cells (HBsAg/HBeAg ELISA, HBV mRNA and HBV DNA real-time PCR); type: cell-based, Hepatitis B virus (HBV); set-up: reduction in HBsAg expression / reduction of HBV mRNA expression: concentration or dose not given beside the values; settings: for reduction of HBV mRNA expression: HepG2/2.2.15 cells, real-time PCR, vs gRNAc; for reduction in HBsAg expression: HepG2/2.2.15 supernatant, 3 days after nucleofection, ELISA, vs scrambled gRNAc; for antiviral efficacy among the 9 gRNAs tested: HepG2.2.15 cells
Description: The HepG2.2.15 Human Hepatoblastoma cell line (Cat #SCC249, MilliporeSigma, Burlington, MA) is a traditional HBV cellular model that is widely used for studying HBV infection and drug development. HepG2.2.15 cells display constitutive HBV RNA transcription and DNA replication, but a lesser detection of cccDNA by Southern blot and PCR detection. The HepG2/2.2.15 cells were cultured in DMEM (Cat #MT10013CV, Fisher Scientific, Waltham, MA) supplemented with 10% Fetal bovine serum, penicillin, and streptomycin (50 ug/ml each; Fisher Scientific) and maintained at 37° C. and 5% CO2 atmosphere. The Amaxa Cell Line Nucleofector Kit V (Lonza VCA-1003) was used to deliver gRNA/Cas9 into HepG2/2.2.15 cells stably expressing HBV. For each transfection, 160 μM gRNA and 160 μM tracrRNA were first incubated at 37° C. for 30 minutes, followed by adding 80 μM Cas9 protein and incubating at 37° C. for 15 minutes. Approximately 40 μM of the gRNA/Cas9 complex was transfected into HepG2/2.2.15 cells (5×10^5) following the manufacturer's instructions. After 72 hours, the culture supernatants were harvested to measure HBV antigens by ELISA, and the cell pellets were used to determine HBV DNA or mRNA levels by real-time-PCR.
The levels of HBsAg and HBeAg in the supernatants of cell cultures were determined by ELISA (Cat #KA0286 and NBP2-600029, Novus Biologicals, Littleton, CO) according to the manufacturer's protocol. The optical density of antigen levels was measured at 450 nm using a microplate spectrophotometer. The samples were run in triplicate, and the experiments were repeated at least three times.
Total RNA was extracted from the cell pellets by the RNeasy Mini kit (Cat #74104, QIAGEN, Germantown, MD), and 1 μg RNA was converted to cDNA using the Applied Biosystems High-Capacity cDNA Reverse Transcription Kit (Cat #43-688-14, ThermoFisher, Waltham, MA). Quantitative real-time PCR (real-time-qPCR) was performed using iTaq Universal SYBR Green Supermix (Cat #1725124, Bio-Rad, Hercules, CA). The PCR primers were: HBV mRNA forward, 5′-[…]-3′ (SEQ ID NO: 52), reverse, 5′-[…]-3′ (SEQ ID NO: 53); HBV pgRNA forward 5′-[…]-3′ (SEQ ID NO: 54), reverse 5′-[…]-3′ (SEQ ID NO: 55); and GAPDH forward 5′-[…]-3′ (SEQ ID NO: 56), reverse 5′-[…]-3′ (SEQ ID NO: 57). The gene expression levels were determined by the […] method and values were normalized to GAPDH expression as an internal control.
Total and protein-free HBV DNAs were extracted from whole cell lysate using the Hirt DNA method according to a previously published protocol. For HBV cccDNA analysis, the protein-free DNA was treated with 10 units of T5 exonuclease (NEB) at 37° C. for 30 min, followed by 95° C. for 5 min, and diluted 4-fold with nuclease-free water. Next, the cccDNA was cleaned with a DNA clean and concentrator kit (ZYMO Research, Irvine, CA) and used for PCR. HBV total DNA and cccDNA were analyzed by real-time PCR using a TaqMan PCR assay. The primers and probe used to amplify HBV total DNA were: HBV total DNA forward: 5′-[…]-3′ (SEQ ID NO: 58), reverse 5′-[…]-3′ (SEQ ID NO: 59), and internal probe: 5′-FAM-[…]-TAMRA-3′ (SEQ ID NO: 60). The primers and probe used to amplify HBV cccDNA (Genotype D, subtype ayw) were: forward: 5′-[…]-3′ (SEQ ID NO: 61), reverse 5′-[…]-3′ (SEQ ID NO: 62), and internal probe 5′-FAM-[…]-TAMRA-3′ (SEQ ID NO: 63). The PCR reactions were performed in 20 μl volumes and contained 2 μl DNA. The PCR conditions were: 95° C. for 10 min, followed by 45 cycles of 95° C. for 15 s and 64° C. for 30 s. The DNA levels were determined by the […] method and values were normalized to the control group.
Because the hepatoma cell line HepG2/2.2.15 is a traditional HBV cellular model used to test the efficacy and cytotoxicity of anti-HBV drugs, the synthetic gRNA/Cas9 RNPs were tested for their antiviral efficiency in HepG2/2.2.15 cells. […]

HBV cccDNA = test: HBV-infected HepG2-NTCP cells directly transfected with gRNA/Cas9 RNPs, HBV cccDNA qPCR; type: cell-based, Hepatitis B virus (HBV); settings: direct transfection for 3 days
Description: To test whether the synthetic gRNA/Cas9 can reduce newly formed HBV cccDNA in HepG2-NTCP cells, the cells with HBV particle-containing supernatants from HepDE19 cells (supernatants harvested 6 days after culture in Tet-free media) were infected. The HepG2-NTCP cells were infected with HBV particles for 6 days and then transfected with gRNA5, gRNA9, gRNA5 plus gRNA9 (in combination), or gRNAc RNPs for 3 days, followed by measuring HBV cccDNA. In another experiment, the infected HepG2-NTCP cells were incubated for 3 days with exosomes packaged with gRNA5, gRNA9, gRNA5 plus gRNA9 (in combination), or gRNAc RNPs, followed by measuring HBV cccDNA.
In another experiment, 1×10^6 HepG2-NTCP cells were infected using supernatants containing HBV particles from HepDE19 cells that were maintained for 6 days. The HBV-infected HepG2-NTCP cells were transfected with gRNA5, gRNA9, gRNA5 plus gRNA9, or gRNAc RNPs as described above. The cells were maintained for 3 days in a complete culture medium and then harvested for HBV cccDNA detection by qPCR.
Total and protein-free HBV DNAs were extracted from whole cell lysate using the Hirt DNA method according to a previously published protocol. […] HBV total DNA and cccDNA were analyzed by real-time PCR using a TaqMan PCR assay. […] The DNA levels were determined by the […] method and values were normalized to the control group.

Sequence	reduction of HBV mRNA expression [1]	reduction in HBsAg expression [1] [%]	antiviral efficacy among the 9 gRNAs tested [1]	HBV cccDNA levels (HBV cccDNA)
GGTCTCCATGCGACGTGCAGNGG [gRNA9]	~ 50%	50	most specific and potent antiviral efficacy	significantly reduced
GTTATCGCTGGATGTGTCTGNGG (guide GUUAUCGCUGGAUGUGUCUGNGG; complexed with Cas9 protein, chemistry not fully specified) [gRNA5, tested as synthetic gRNA/Cas9 RNP]	~ 50%	50	most specific and potent antiviral efficacy	significantly reduced
